Test results as given in patent publication US10098902B2, “Arginase inhibitors as therapeutics” (Mars, Incorporated, priority 2010, dated 2018).

What was measured:
[1] = biological target: human arginase I (ARG I) (Homo sapiens (Human), UniProt P05089); assay: Inhibition of arginase I, spectrophotometric urea assay at 530 nm; type: biochemical; conditions: potency rank 1-5; pH 7.4, 37° C., 60 minutes
Procedure: (§1) Inhibition of arginase I (ARG I) and arginase II (ARG II) by Formula I or Formula II compounds is followed spectrophotometrically at 530 nm. The compound to be tested was dissolved in DMSO at an initial concentration 50-fold greater than its final concentration in the cuvette. 10 μl of the stock solution was diluted in 90 μl of the assay buffer that comprises 0.1M sodium phosphate buffer containing 130 mM NaCl, pH 7.4, to which is added ovalbumin (OVA) at a concentration of 1 mg/ml. Solutions of arginase I and II were prepared in 100 mM sodium phosphate buffer, pH 7.4 containing 1 mg/ml of OVA to give an arginase stock solution at a final concentration of 100 ng/ml.
(§2) To each well of a 96-well microtiter plate was added 40 μl of enzyme, 10 μl of an inventive compound and 10 μl of enzyme substrate (L-arginine+manganese sulfate). For wells that were used as positive controls, only the enzyme and its substrate were added, while wells used as negative controls contained only manganese sulfate.
(§3) After incubating the microtiter plate at 37° C. for 60 minutes, 150 μl of a urea reagent obtained by combining equal proportions (1:1) of reagents A and B is added to each well of the microtiter plate to stop the reaction. The urea reagent is made just before use by combining Reagent A (10 mM o-phthaldialdehyde, and 0.4% polyoxyethylene (23) lauryl ether (w/v) in 1.8 M sulfuric acid) with Reagent B (1.3 mM primaquine diphosphate, 0.4% polyoxyethylene (23) lauryl ether (w/v), 130 mM boric acid in 3.6 mM sulfuric acid). After quenching the reaction mixture, the microtiter plate is allowed to stand for an additional 10 minutes at room temperature to allow the color to develop. The inhibition of arginase was computed by measuring the optical density (OD) of the reaction mixture at 530 nm and normalizing the OD value to percent inhibition observed in the control. The normalized OD is then used to generate a dose-response curve by plotting the normalized OD values against log [concentration] and using regression analysis to compute the IC50 values.

[2] = biological target: human arginase II (ARG II) (Homo sapiens (Human), UniProt P78540); assay: Inhibition of arginase II, spectrophotometric urea assay at 530 nm; type: biochemical; conditions: potency rank 1-5; pH 7.4, 37° C., 60 minutes
Procedure: as §1, §2, §3

Sequence of human arginase II (ARG II) (P78540 23-354): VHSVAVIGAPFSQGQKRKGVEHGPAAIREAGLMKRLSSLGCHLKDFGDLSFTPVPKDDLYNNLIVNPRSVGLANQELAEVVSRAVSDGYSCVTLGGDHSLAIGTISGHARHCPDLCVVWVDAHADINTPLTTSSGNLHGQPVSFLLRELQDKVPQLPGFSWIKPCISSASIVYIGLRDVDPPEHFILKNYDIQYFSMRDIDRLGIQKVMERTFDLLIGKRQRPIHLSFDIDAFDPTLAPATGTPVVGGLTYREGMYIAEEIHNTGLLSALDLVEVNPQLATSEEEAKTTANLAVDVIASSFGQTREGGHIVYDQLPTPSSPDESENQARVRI
Sequence of human arginase I (ARG I) (P05089 whole entry): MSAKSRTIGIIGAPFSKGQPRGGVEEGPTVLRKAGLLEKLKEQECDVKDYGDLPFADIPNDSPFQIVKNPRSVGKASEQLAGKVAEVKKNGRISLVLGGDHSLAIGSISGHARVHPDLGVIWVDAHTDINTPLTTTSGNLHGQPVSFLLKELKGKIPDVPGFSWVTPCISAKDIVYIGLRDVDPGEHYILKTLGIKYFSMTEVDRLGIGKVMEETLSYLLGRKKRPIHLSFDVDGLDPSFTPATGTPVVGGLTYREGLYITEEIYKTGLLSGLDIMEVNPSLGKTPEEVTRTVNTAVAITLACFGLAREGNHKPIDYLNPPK

SMILES | IC50 [1] [nM] | IC50 [2] [nM]
N[C@@]1(C(=O)O)CCC[C@@H]1CCCB(O)O (racemic) [Example 1, (1S,2S)-1-amino-2-(3-boronopropyl)cyclopentanecarboxylic acid] | 251 to 1000 | 251 to 1000
N[C@@]1(C(=O)O)CN(C(=O)Nc2ccc(F)cc2)C[C@@H]1CCCB(O)O (racemic) [Example 48, (3R,4S)-3-amino-4-(3-boronopropyl)-1-(4-fluorophenylcarbamoyl)pyrrolidine-3-carboxylic acid] | 251 to 1000 | 251 to 1000
N[C@@]1(C(=O)O)CCC[C@H]1CCCB(O)O [Example 2, (1S,2R)-1-amino-2-(3-boronopropyl)cyclopentanecarboxylic acid] | > 5000 | > 5000
N[C@@]1(C(=O)O)CCO[C@@H]1CCCB(O)O [Example 3, (2R,3S)-3-amino-2-(3-boronopropyl)tetrahydrofuran-3-carboxylic acid] | 1000 to 2000 | 2000 to 5000
NC1(C(=O)O)CCSC1CCCB(O)O (stereo not shown) [Example 5, 3-amino-2-(3-boronopropyl)tetrahydrothiophene-3-carboxylic acid] | 1000 to 2000 | 2000 to 5000
N[C@@]1(C(=O)O)CNC[C@@H]1CCCB(O)O [Example 8, (3R,4S)-3-amino-4-(3-boronopropyl)pyrrolidine-3-carboxylic acid] | 251 to 1000 | 251 to 1000
N[C@@]1(C(=O)O)CNC[C@H]1CCCB(O)O [Example 9, (3R,4R)-3-amino-4-(3-boronopropyl)pyrrolidine-3-carboxylic acid] | 1000 to 2000 | 1000 to 2000
N[C@@]1(C(=O)O)CCN[C@@H]1CCCB(O)O [Example 10, (2R,3S)-3-amino-2-(3-boronopropyl)pyrrolidine-3-carboxylic acid] | > 5000 | > 5000
N[C@@]1(C(=O)O)CN(Cc2cccnc2)C[C@@H]1CCCB(O)O [Example 13, (3R,4S)-3-amino-4-(3-boronopropyl)-1-(pyridin-3-ylmethyl)pyrrolidine-3-carboxylic acid] | 251 to 1000 | 1000 to 2000
N[C@@]1(C(=O)O)CN(CC2CCNCC2)C[C@@H]1CCCB(O)O [Example 15] | 251 to 1000 | 1000 to 2000
CN(C)CC(C)(C)CN1C[C@H](CCCB(O)O)[C@](N)(C(=O)O)C1 [Example 17, (3R,4S)-3-amino-4-(3-boronopropyl)-1-(3-(dimethylamino)-2,2-dimethylpropyl)pyrrolidine-3-carboxylic acid] | 2000 to 5000 | 
N[C@@]1(C(=O)O)CN(Cc2ccnc3ccccc23)C[C@@H]1CCCB(O)O [Example 19, (3R,4S)-3-amino-4-(3-boronopropyl)-1-(quinolin-4-ylmethyl)pyrrolidine-3-carboxylic acid] | 251 to 1000 | 251 to 1000
N[C@@]1(C(=O)O)CN(CCCc2ccc(Cl)cc2)C[C@@H]1CCCB(O)O [Example 22, (3R,4S)-3-amino-4-(3-boronopropyl)-1-(3-(4-chlorophenyl)propyl)pyrrolidine-3-carboxylic acid] | 251 to 1000 | 251 to 1000
N[C@@]1(C(=O)O)CN(c2ncnc3nc[nH]c23)C[C@@H]1CCCB(O)O [Example 23, (3R,4S)-3-amino-4-(3-boronopropyl)-1-(7H-purin-6-yl)pyrrolidine-3-carboxylic acid] | 251 to 1000 | 1000 to 2000

More lines, now with the values ahead:

IC50 [1] [nM] | IC50 [2] [nM] | SMILES
0.1 to 250 | 251 to 1000 | N[C@@]1(C(=O)O)CN(C(=O)C2Cc3ccccc3CN2)C[C@@H]1CCCB(O)O (mixture of isomers) [Example 53, (3R,4S)-3-amino-4-(3-boronopropyl)-1-(1,2,3,4-tetrahydroisoquinoline-3-carbonyl)pyrrolidine-3-carboxylic acid]
251 to 1000 | 1000 to 2000 | NC(Cc1ccc(C(F)(F)F)cc1)C(=O)N1C[C@H](CCCB(O)O)[C@](N)(C(=O)O)C1 (mixture of isomers) [Example 54, (3R,4S)-3-amino-1-(2-amino-3-(4-(trifluoromethyl)phenyl)propanoyl)-4-(3-boronopropyl)pyrrolidine-3-carboxylic acid]
0.1 to 250 | 0.1 to 250 | NC(Cc1ccccc1)CN1C[C@H](CCCB(O)O)[C@](N)(C(=O)O)C1 (mixture of isomers) [Example 57, (3R,4S)-3-amino-1-(2-amino-3-phenylpropyl)-4-(3-boronopropyl)pyrrolidine-3-carboxylic acid]
251 to 1000 | 251 to 1000 | N[C@@]1(C(=O)O)CN(C(=O)c2ccc(F)cc2)C[C@@H]1CCCB(O)O (racemic) [Example 46, (3R,4S)-3-amino-4-(3-boronopropyl)-1-(4-fluorobenzoyl)pyrrolidine-3-carboxylic acid]
0.1 to 250 | 0.1 to 250 | N[C@@]1(C(=O)O)C[C@@H](NCc2ccccc2)C[C@@H]1CCCB(O)O (racemic) [Example 62, (1S,2S,4S)-1-amino-4-(benzylamino)-2-(3-boronopropyl)cyclopentanecarboxylic acid]
0.1 to 250 | 0.1 to 250 | CN(C)[C@H]1C[C@H](CCCB(O)O)[C@](N)(C(=O)O)C1 (racemic) [Example 63, (1S,2S,4S)-1-amino-2-(3-boronopropyl)-4-(dimethylamino)cyclopentanecarboxylic acid]
0.1 to 250 | 0.1 to 250 | NC[C@@H]1C[C@H](CCCB(O)O)[C@](N)(C(=O)O)C1 (racemic) [Example 64, (1S,2S,4R)-1-amino-4-(aminomethyl)-2-(3-boronopropyl)cyclopentanecarboxylic acid]
251 to 1000 | 1000 to 2000 | NC[C@H]1C[C@H](CCCB(O)O)[C@](N)(C(=O)O)C1 (racemic) [Example 65, (1S,2S,4S)-1-amino-4-(aminomethyl)-2-(3-boronopropyl)cyclopentanecarboxylic acid]
0.1 to 250 | 0.1 to 250 | NCC[C@H]1C[C@H](CCCB(O)O)[C@](N)(C(=O)O)C1 (racemic) [Example 66, (1S,2S,4R)-1-amino-4-(2-aminoethyl)-2-(3-boronopropyl)cyclopentanecarboxylic acid]
0.1 to 250 | 0.1 to 250 | N[C@@]1(C(=O)O)CCO[C@H]1CCCB(O)O [Example 4, (2S,3S)-3-amino-2-(3-boronopropyl)tetrahydrofuran-3-carboxylic acid]
251 to 1000 | 2000 to 5000 | N[C@@]1(C(=O)O)CCNC[C@H]1CCCB(O)O [Example 6, (3R,4S)-4-amino-3-(3-boronopropyl)piperidine-4-carboxylic acid]
251 to 1000 | 251 to 1000 | N[C@@]1(C(=O)O)CCNC[C@@H]1CCCB(O)O [Example 7, (3S,4S)-4-amino-3-(3-boronopropyl)piperidine-4-carboxylic acid]
251 to 1000 | 1000 to 2000 | CC(C)CN1C[C@H](CCCB(O)O)[C@](N)(C(=O)O)C1 [Example 11, (3R,4S)-3-amino-4-(3-boronopropyl)-1-isobutylpyrrolidine-3-carboxylic acid]
251 to 1000 | 1000 to 2000 | N[C@@]1(C(=O)O)CN(Cc2ccccc2)C[C@@H]1CCCB(O)O [Example 12, (3R,4S)-3-amino-1-benzyl-4-(3-boronopropyl)pyrrolidine-3-carboxylic acid]
0.1 to 250 | 0.1 to 250 | NC1CCCC1N1C[C@H](CCCB(O)O)[C@](N)(C(=O)O)C1 (stereo partly drawn) [Example 14, (3R,4S)-3-amino-1-(2-aminocyclopentyl)-4-(3-boronopropyl)pyrrolidine-3-carboxylic acid]
0.1 to 250 | 0.1 to 250 | N[C@@]1(C(=O)O)CN(CCCc2ccc(C(=O)O)cc2)C[C@@H]1CCCB(O)O [Example 16, (3R,4S)-3-amino-4-(3-boronopropyl)-1-(3-(4-carboxyphenyl)propyl)pyrrolidine-3-carboxylic acid]
0.1 to 250 | 251 to 1000 | N[C@@]1(C(=O)O)CN(CC2CCCNC2)C[C@@H]1CCCB(O)O (stereo partly drawn) [Example 18, (3R,4S)-3-amino-4-(3-boronopropyl)-1-(piperidin-3-ylmethyl)pyrrolidine-3-carboxylic acid]
0.1 to 250 | 251 to 1000 | N[C@@]1(C(=O)O)CN(Cc2c[nH]cn2)C[C@@H]1CCCB(O)O [Example 20, (3R,4S)-1-((1H-imidazol-4-yl)methyl)-3-amino-4-(3-boronopropyl)pyrrolidine-3-carboxylic acid]
0.1 to 250 | 0.1 to 250 | N[C@@]1(C(=O)O)CN(CC2CCCCN2)C[C@@H]1CCCB(O)O (stereo partly drawn) [Example 21, (3R,4S)-3-amino-4-(3-boronopropyl)-1-(piperidin-2-ylmethyl)pyrrolidine-3-carboxylic acid]
0.1 to 250 | 0.1 to 250 | NCCN1C[C@H](CCCB(O)O)[C@](N)(C(=O)O)C1 [Example 24, (3R,4S)-3-amino-1-(2-aminoethyl)-4-(3-boronopropyl)pyrrolidine-3-carboxylic acid]
